Here are results for 4 molecules from patent US5087634A, “N-substituted imidazol-2-one compounds for treatment of circulatory disorders” (G. D. Searle & Co., priority 1990, dated 1992).

The subject of one test is angiotensin II. The conditions noted are these: binding experiments, functional assays and in vivo tests; cited from earlier work.
Test [1] has as its target smooth muscle angiotensin II receptor. Briefly: Angiotensin II Binding Activity (displacement of 125I-AII from rat uterine membranes). The conditions noted are these: 25° C., 60 min, read-out: IC50 (50% displacement of the total specifically bound 125I-AII). As to the method: Compounds of the invention were tested for ability to bind to the smooth muscle angiotensin II receptor using a rat uterine membrane preparation. Angiotensin II (AII) was purchased from Peninsula Labs. 125I-angiotensin II (specific activity of 2200 Ci/mmol) was purchased from Du Pont-New England Nuclear. Other chemicals were obtained from Sigma Chemical Co. This assay was carried out according to the method of Douglas et al [Endocrinoloby, 106, 120-124 (1980)]. Rat uterine membranes were prepared from fresh tissue. All procedures were carried out at 4° C. Uteri were stripped of fat and homogenized in phosphate-buffered saline at pH 7.4 containing 5 mM EDTA. The homogenate was centrifuged at 1500× g for 20 min., and the supernatant was recentrifuged at 100,000× g for 60 min. The pellet was resuspended in buffer consisting of 2 mM EDTA and 50 mM Tris-HCl (pH 7.5) to a final protein concentration of 4 mg/ml. Assay tubes were charged with 0.25 ml of a solution containing 5 mM MgCl2, 2 mM EDTA, 0.5% bovine serum albumin, 50 mM Tris-HCl, pH 7.5 and ^125 I-AJI (approximately 10^5 cpm) in the absence or in the presence of unlabelled ligand. […] Filters were assayed for radioactivity in a Micromedic gamma counter. […] Specific binding was calculated as total binding minus nonspecific binding. […] Binding data were analyzed by a nonlinear least-squares curve fitting program.
On the technique in general: In a radioligand displacement assay an active substance lowers the binding of a labelled ligand.

Test [2] has as its system angiotensin II pressor response. Briefly: In Vivo Intragastric Pressor Assay Response for AII Antagonists. More on the design: species or system rat (male Sprague-Dawley). The conditions noted are these: dose 10 (units not given), gavage, listed as EX. #1. As for the experimental part: Male Sprague-Dawley rats weighing 225-300 grams were anesthetized with methohexital (30 mg/kg, i.p.) and catheters were implanted into the femoral artery and vein. The catheters were tunneled subcutaneously to exit dorsally, posterior to the head and between the scapulae. The catheters were filled with heparin (1000 units/ml of saline). The rats were returned to their cage and allowed regular rat chow and water ad libitum. After full recovery from surgery (3-4 days), rats were placed in Lucite holders and the arterial line was connected to a pressure transducer. Arterial pressure was recorded on a Gould polygraph (mmHg). […] After allowing one hour for pressure to stabilize, the test compound (suspended in 0.5% methylcellulose in water) was administered by gavage. The volume administered was 2 ml/kg body weight. Arterial pressure was monitored for 5 hours post-dosing. The angiotensin II infusion was then discontinued and pressure was allowed to reach a stable recovery level. Percent inhibition (%I) of the angiotensin II pressor response was calculated from the difference in pressure at a given timepoint post-dosing with the test compound and the antiotensin II-infused pressure, divided by the difference in pressure with and without the angiotensin II infusion; this value was multiplied by 100. Duration of action of a test compound was defined as the time taken for pressure to return to angiotensin II-infused baseline levels after compound administration. One compound at one dose was tested in each rat. The compound of Example I was tested in two rats.

The next test concerns the target T1, rabbit aortic rings (Oryctolagus cuniculus, UniProt P34976).
T1 construct: The thoracic aorta was removed, cleaned of adherent fat and connective tissue and then cut into 3-mm ring segments; from tissue; host or cells: thoracic aorta rings of male New Zealand white rabbits, endothelium removed
T1 sequence (P34976 1-359): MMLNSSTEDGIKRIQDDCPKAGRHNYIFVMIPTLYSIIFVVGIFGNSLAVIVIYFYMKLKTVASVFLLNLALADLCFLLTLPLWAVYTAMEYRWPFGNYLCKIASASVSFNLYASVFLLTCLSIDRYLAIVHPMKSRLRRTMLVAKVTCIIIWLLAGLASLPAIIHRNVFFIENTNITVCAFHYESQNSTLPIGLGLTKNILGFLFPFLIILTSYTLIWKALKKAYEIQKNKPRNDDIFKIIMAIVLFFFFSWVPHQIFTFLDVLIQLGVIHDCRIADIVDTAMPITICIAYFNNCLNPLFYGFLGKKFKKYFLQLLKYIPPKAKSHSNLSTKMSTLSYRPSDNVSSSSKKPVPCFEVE
As to the kind of experiment: In Vitro Vascular Smooth Muscle-Response for AII (rabbit aortic rings). More on the design: species or system rabbit (male New Zealand white). The conditions noted are these: antagonist 10^-5 M for 5 minutes before AII; rabbit aorta rings, 37° C.; read-out: pA2 value (converted). As to the method: The compounds of the invention were tested for antagonist activity in rabbit aortic rings. Male New Zealand white rabbits (2-2.5 kg) were sacrificed using an overdose of pentobarbital and exsanguinated via the carotid arteries. The thoracic aorta was removed, cleaned of adherent fat and connective tissue and then cut into 3-mm ring segments. The endothelium was removed from the rings by gently sliding a rolled-up piece of filter paper into the vessel lumen. The rings were then mounted in a water-jacketed tissue bath, maintained at 37° C., between moveable and fixed ends of a stainless steel wire with the moveable end attached to an FT03 Grass transducer coupled to a Model 7D Grass Polygraph for recording isometric force responses. The bath was filled with 20 ml of oxygenated (95% oxygen/5% carbon dioxide) Krebs solution of the following composition (mM): 130 NaCl, 15 NaHCO3, 15 KCl, 1.2 NaH2 P04, 1.2 MgSO4, 2.5 CaCl2, and 11.4 glucose. The preparations were equilibrated for one hour before approximately one gram of passive tension was placed on the rings. Angiotensin II concentration-response curves were then recorded (3×10^-10 to 1×10^-5 M). […] The effectiveness of the test compound was expressed in terms of pA2 values and were calculated according to H. O. Schild [Br. J. Pharmacol. Chemother., 2, 189-206 (1947)]. […] Each test antagonist was evaluated in aorta rings from two, rabbits.

Another test has as its system angiotensin II receptors. The conditions noted are these: cited from earlier work.

Several values for one entry are separate records, joined by “and”; a condition that tells them apart may be missing. Equal entries are not always repeated.

As for `CCCCc1nc(Cl)c(CC(=O)O)n1Cc1ccccc1[N+](=O)[O-]` [2-butyl-4-choloro-l-(2-nitrobenzyl)imidazole-5-acetic acid], the “angiotensin II antagonist activity” value with angiotensin II is listed as “specific competitive angiotensin II antagonist activity”.

As for `CCCCc1nc(Cl)c(CC(=O)O)n1Cc1ccccc1Cl` [2-n-butyl-4-chloro-l-(2-chlorobenzyl)imidazole-5-acetic acid], in the test on angiotensin II, the “angiotensin II antagonist activity” value was “specific competitive angiotensin II antagonist activity”.

Take `CCCCc1cn(CCCC)c(=O)n1Cc1ccc(-c2ccccc2-c2nnn[nH]2)cc1` [Example 1, 1,4-dibutyl-1,3-dihydro-3-[2'-(1H-tetrazol-5-yl)[1,1'biphenyl]-4-ylmethyl]-2H-imidazol-2-one]: the IC50 (usually the concentration at which inhibition is half-maximal) in test [1] is 6.4 nM. Further, the “mean arterial pressure after administration, time 10” value in test [2] (time 10, AII infusion 50 ng/kg/min, two rats (baseline/after AII 116/168 and 126/175 mmHg)) was 165 mmHg and 166 mmHg. Besides, in test [2] (time 20, AII-infused rats), the “mean arterial pressure after administration, time 20” value is 163 mmHg and 155 mmHg. Further, in test [2] (time 30, AII-infused rats), the “mean arterial pressure after administration, time 30” value was 159 mmHg and 147 mmHg. In addition, in test [2] (time 40, AII-infused rats), the “% inhibition (% I) of the AII pressor response, time 40” value was 41% and 58%; the “mean arterial pressure after administration, time 40” value is 146 mmHg and 147 mmHg. Besides, in test [2] (time 50, AII-infused rats), the “% inhibition (% I) of the AII pressor response, time 50” value is 45% and 89%; the “mean arterial pressure after administration, time 50” value is 144 mmHg and 132 mmHg. Further, in test [2] (time 60, AII-infused rats), the “% inhibition (% I) of the AII pressor response, time 60” value is 54% and 88%; the “mean arterial pressure after administration, time 60” value was 140 mmHg and 132 mmHg. Also, in test [2] (time 90, AII-infused rats), the “% inhibition (% I) of the AII pressor response, time 90” value is 86% and 96%; the “mean arterial pressure after administration, time 90” value is 123 mmHg and 128 mmHg. Further, in test [2] (time 120, AII-infused rats), the “% inhibition (% I) of the AII pressor response, time 120” value was 85% and 103%; the “mean arterial pressure after administration, time 120” value is 124 mmHg and 125 mmHg. For the same molecule, in test [2] (time 150, AII-infused rats), the “% inhibition (% I) of the AII pressor response, time 150” value is 93% and 97%; the “mean arterial pressure after administration, time 150” value was 119 mmHg and 128 mmHg. In addition, in test [2] (time 180, AII-infused rats), the “% inhibition (% I) of the AII pressor response, time 180” value was 96% and 97%; the “mean arterial pressure after administration, time 180” value is 117 mmHg and 127 mmHg. In test [2] (time 210, AII-infused rats), the “% inhibition (% I) of the AII pressor response, time 210” value is 106% and 98%; the “mean arterial pressure after administration, time 210” value was 113 mmHg and 127 mmHg. For the same molecule, in test [2] (time 240, AII-infused rats), the “% inhibition (% I) of the AII pressor response, time 240” value is 102% and 89%; the “mean arterial pressure after administration, time 240” value is 115 mmHg and 131 mmHg. Moreover, in test [2] (time 270, AII-infused rats), the “% inhibition (% I) of the AII pressor response, time 270” value was 96% and 92%; the “mean arterial pressure after administration, time 270” value is 117 mmHg and 130 mmHg. In test [2] (time 300, AII-infused rats), the “% inhibition (% I) of the AII pressor response, time 300” value was 97% and 87%; the “mean arterial pressure after administration, time 300” value is 117 mmHg and 133 mmHg. Besides, the Kb at rabbit aortic rings was 2.51 nM.

With `CNCC(=O)N[C@@H](CCCN=C(N)N)C(=O)N[C@H](C(=O)N[C@@H](Cc1ccc(O)cc1)C(=O)N[C@H](C(=O)N[C@@H](Cc1cnc[nH]1)C(=O)N1CCC[C@H]1C(=O)N[C@@H](C)C(=O)O)C(C)C)C(C)C` [Saralasin], the residual agonist activity entry in the test on angiotensin II receptors is recorded as “significant residual agonist activity”.
